Data: ChEMBL document CHEMBL1201862, “PubChem BioAssay data set” (2004)
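Results reflect a 48-hour exposure of cells in 96-well plates to compound at five concentrations. GI50 marks 50% less growth.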 Calls of active or inactive are those of the source. Cut-off read from the data, not from the text of the source: active = GI50 up to about 1.1 µM and inactive = higher.

Legend:
Test in all cases: NCI anticancer screen, dose series, 48 h
786-0 = system: 786-0
A549 = system: A549
ACHN = system: ACHN
BT-549 = system: BT-549
CAKI-1 = system: CAKI-1
CCRF-CEM = system: CCRF-CEM
COLO 205 = system: COLO 205
DU-145 = system: DU-145
EKVX = system: EKVX
HCT-116 = system: HCT-116
HCT-15 = system: HCT-15
HOP-62 = system: HOP-62
HOP-92 = system: HOP-92
HT-29 = system: HT-29
Hs-578T = system: Hs-578T
IGROV-1 = system: IGROV-1
K562 = system: K562
KM12 = system: KM12
LOX IMVI = system: LOX IMVI
M14 = system: M14
MCF7 = system: MCF7
MDA-MB-231 = system: MDA-MB-231
MDA-MB-435 = system: MDA-MB-435
MDA-N = system: MDA-N
MOLT-4 = system: MOLT-4
NCI-H23 = system: NCI-H23
NCI-H460 = system: NCI-H460
NCI-H522 = system: NCI-H522
NCI/ADR-RES = system: NCI/ADR-RES
OVCAR-3 = system: OVCAR-3
OVCAR-4 = system: OVCAR-4
OVCAR-5 = system: OVCAR-5
OVCAR-8 = system: OVCAR-8
PC-3 = system: PC-3
RXF 393 = system: RXF 393
SF-268 = system: SF-268
SF-295 = system: SF-295
SF-539 = system: SF-539
SK-MEL-2 = system: SK-MEL-2
SK-MEL-5 = system: SK-MEL-5
SK-OV-3 = system: SK-OV-3
SN12C = system: SN12C
SNB-19 = system: SNB-19
SNB-75 = system: SNB-75
SR = system: SR
SW-620 = system: SW-620
TK-10 = system: TK-10
U-251 = system: U-251
UACC-257 = system: UACC-257
UACC-62 = system: UACC-62
UO-31 = system: UO-31
A498 = system: A498
HCC 2998 = system: HCC 2998
HL-60 = system: HL-60
Malme-3M = system: Malme-3M
NCI-H226 = system: NCI-H226
RPMI-8226 = system: RPMI-8226
SK-MEL-28 = system: SK-MEL-28

For `COc1c(C)c(C/C=C(\C)CC/C=C(\C)CC/C=C(\C)CCC=C(C)C)c(OC)c2ccccc12`, the GI50 (786-0) was > 100 µM (inactive), the GI50 (A549) was > 100 µM (inactive) and the GI50 (ACHN) was > 100 µM (inactive). For the same compound, the GI50 (BT-549) was > 100 µM (inactive), the GI50 (CAKI-1) was > 100 µM (inactive) and the GI50 (CCRF-CEM) was 28.5 µM (inactive). For the same compound, the GI50 (COLO 205) was > 100 µM (inactive), the GI50 (DU-145) was > 100 µM (inactive) and the GI50 (EKVX) was > 100 µM (inactive). For the same compound, the GI50 (HCT-116) was > 100 µM (inactive), the GI50 (HCT-15) was > 100 µM and the GI50 (HOP-62) was > 100 µM (inactive). The GI50 (HOP-92) was > 100 µM (inactive), the GI50 (HT-29) was > 100 µM (inactive) and the GI50 (Hs-578T) was > 100 µM (inactive). For the same compound, the GI50 (IGROV-1) was 37.2 µM (inactive), the GI50 (K562) was > 100 µM (inactive) and the GI50 (KM12) was > 100 µM (inactive). For the same compound, the GI50 (LOX IMVI) was 70 µM (inactive), the GI50 (M14) was > 100 µM (inactive) and the GI50 (MCF7) was > 100 µM (inactive). For the same compound, the GI50 (MDA-MB-231) was > 100 µM (inactive), the GI50 (MDA-MB-435) was > 100 µM (inactive) and the GI50 (MDA-N) was > 100 µM (inactive). For the same compound, the GI50 (MOLT-4) was > 100 µM (inactive), the GI50 (NCI-H23) was > 100 µM (inactive) and the GI50 (NCI-H460) was 39.7 µM (inactive). For the same compound, the GI50 (NCI-H522) was > 100 µM (inactive), the GI50 (NCI/ADR-RES) was > 100 µM (inactive) and the GI50 (OVCAR-3) was > 100 µM (inactive). The GI50 (OVCAR-4) was > 100 µM (inactive), the GI50 (OVCAR-5) was > 100 µM (inactive) and the GI50 (OVCAR-8) was > 100 µM (inactive). For the same compound, the GI50 (PC-3) was > 100 µM (inactive), the GI50 (RXF 393) was > 100 µM (inactive) and the GI50 (SF-268) was > 100 µM (inactive). For the same compound, the GI50 (SF-295) was > 100 µM (inactive), the GI50 (SF-539) was > 100 µM (inactive) and the GI50 (SK-MEL-2) was > 100 µM (inactive). The GI50 (SK-MEL-5) was > 100 µM (inactive), the GI50 (SK-OV-3) was > 100 µM (inactive) and the GI50 (SN12C) was > 100 µM (inactive). For the same compound, the GI50 (SNB-19) was > 100 µM (inactive), the GI50 (SNB-75) was > 100 µM (inactive) and the GI50 (SR) was 35.7 µM (inactive). For the same compound, the GI50 (SW-620) was > 100 µM (inactive), the GI50 (TK-10) was > 100 µM (inactive) and the GI50 (U-251) was > 100 µM (inactive). The GI50 (UACC-257) was > 100 µM (inactive), the GI50 (UACC-62) was > 100 µM (inactive) and the GI50 (UO-31) was > 100 µM (inactive).

For `Cc1ccc(S(=O)(=O)NC(=O)Nc2c(S(N)(=O)=O)cc(S(N)(=O)=O)c(Cl)c2Cl)cc1`, the GI50 (786-0) was > 100 µM (inactive), the GI50 (A498) was > 100 µM (inactive) and the GI50 (A549) was > 100 µM (inactive). The GI50 (ACHN) was > 100 µM (inactive), the GI50 (BT-549) was > 100 µM (inactive) and the GI50 (CAKI-1) was > 100 µM (inactive). For the same compound, the GI50 (CCRF-CEM) was > 100 µM (inactive), the GI50 (EKVX) was > 100 µM (inactive) and the GI50 (HCC 2998) was > 100 µM (inactive). The GI50 (HCT-116) was > 100 µM (inactive), the GI50 (HCT-15) was > 100 µM and the GI50 (HL-60) was > 100 µM (inactive). For the same compound, the GI50 (HOP-92) was > 100 µM (inactive), the GI50 (HT-29) was > 100 µM (inactive) and the GI50 (Hs-578T) was > 100 µM (inactive). For the same compound, the GI50 (IGROV-1) was > 100 µM (inactive), the GI50 (K562) was > 100 µM (inactive) and the GI50 (KM12) was > 100 µM (inactive). For the same compound, the GI50 (LOX IMVI) was > 100 µM (inactive), the GI50 (M14) was > 100 µM (inactive) and the GI50 (MCF7) was > 100 µM (inactive). The GI50 (MDA-MB-231) was > 100 µM (inactive), the GI50 (MDA-MB-435) was > 100 µM (inactive) and the GI50 (MDA-N) was > 100 µM (inactive). The GI50 (MOLT-4) was > 100 µM (inactive), the GI50 (Malme-3M) was > 100 µM (inactive) and the GI50 (NCI-H226) was > 100 µM (inactive). For the same compound, the GI50 (NCI-H23) was > 100 µM (inactive), the GI50 (NCI-H460) was > 100 µM (inactive) and the GI50 (NCI-H522) was > 100 µM (inactive). The GI50 (NCI/ADR-RES) was > 100 µM (inactive), the GI50 (OVCAR-3) was > 100 µM (inactive) and the GI50 (OVCAR-4) was > 100 µM (inactive). For the same compound, the GI50 (OVCAR-5) was > 100 µM (inactive), the GI50 (OVCAR-8) was > 100 µM (inactive) and the GI50 (PC-3) was > 100 µM (inactive). The GI50 (RPMI-8226) was > 100 µM (inactive), the GI50 (SF-268) was > 100 µM (inactive) and the GI50 (SF-295) was > 100 µM (inactive). For the same compound, the GI50 (SF-539) was > 100 µM (inactive), the GI50 (SK-MEL-28) was > 100 µM (inactive) and the GI50 (SK-MEL-2) was > 100 µM (inactive). The GI50 (SK-MEL-5) was > 100 µM (inactive), the GI50 (SK-OV-3) was > 100 µM (inactive) and the GI50 (SN12C) was > 100 µM (inactive). For the same compound, the GI50 (SNB-19) was > 100 µM (inactive), the GI50 (SR) was > 100 µM (inactive) and the GI50 (SW-620) was > 100 µM (inactive). For the same compound, the GI50 (TK-10) was > 100 µM (inactive), the GI50 (U-251) was > 100 µM (inactive) and the GI50 (UACC-257) was > 100 µM (inactive). For the same compound, the GI50 (UACC-62) was > 100 µM (inactive) and the GI50 (UO-31) was > 100 µM (inactive).

For `c1ccc(Nn2c(CCCCCCCCc3nnc(COc4ccccc4)n3Nc3ccccc3)nnc2COc2ccccc2)cc1`, the GI50 (A498) was 87.9 µM (inactive), the GI50 (A549) was 11.8 µM (inactive) and the GI50 (BT-549) was 58.5 µM (inactive). The GI50 (EKVX) was 32.7 µM (inactive), the GI50 (HCT-116) was 16.2 µM (inactive) and the GI50 (HT-29) was 24.3 µM (inactive). The GI50 (Hs-578T) was 72.8 µM (inactive), the GI50 (MCF7) was 11.5 µM (inactive) and the GI50 (MDA-MB-231) was 20 µM (inactive). The GI50 (MDA-N) was 11 µM (inactive), the GI50 (MOLT-4) was 18 µM (inactive) and the GI50 (NCI-H522) was 16.1 µM (inactive). The GI50 (RXF 393) was 48.5 µM (inactive), the GI50 (SF-539) was 12.8 µM (inactive) and the GI50 (SNB-19) was 36.9 µM (inactive). For the same compound, the GI50 (UACC-257) was 13.9 µM (inactive) and the GI50 (UACC-62) was 1.74 µM (inactive).
